# Laboratory results published in patent publication US20130059840A1, “SULFONAMIDO PYRROLIDINE COMPOUNDS WHICH INHIBIT BETA-SECRETASE ACTIVITY AND METHODS OF USE THEREOF” (CoMentis, Inc., priority 2009, published 2013).
# pIC50, pKi: −log10 of the molar value.
# Experiments:
# [1] = Hepatic intrinsic clearance in liver microsomes; type: in vitro ADME; conditions: pH 7.4; human liver microsomes, LC/MS/MS; read-out: HLM CL
# Description: To 500 μl of 200 mM Na^+ K^+ phosphate buffer (pH 7.4), 100 μl of 1 mM EDTA solution was added followed by 100 μl of 2 mg protein/ml human liver microsomes. A 10 μl aliquot of test compound (20 mM stock in 50% acetonitrile) was diluted further with 40 μl of H2O (total assay volume 750 μl. Assay mixture is incubated for 5 minutes at 37° C. The assay was initiated by addition of 250 μl of 4 mM NADPH solution. Incubation was continued at 37° C. Separate reaction mixtures were prepared for 0, 5, 10, 20, and 30 min durations. Individual reactions were halted by addition of 150 μl of 100% acetonitrile. Internal standard (10 μl of 100 ng/ml diazepam solution) was added. Concentration of the test compound in each separate reaction was measured using LC/MS/MS and a standard curve for the test compound according to standard procedures.
# The hepatic intrinsic clearance in liver microsome was determined by the following procedure described by Davies and Morris (Davies, B. and Morris, T. (19930) Physiological parameters in laboratory animals and humans. Pharm Res. 10:1093-1095) detailing the relationship of in vitro clearance to physiological parameters in animals and human subjects.
# The amount of compound remaining at each time point was expressed relative to the amount present in the initial (0 min) incubation. The relationship of relative amount vs. time was used to determine the half life of the compound in the microsome assay. The concentration independent rate constant, k1, was determined from rectangular hyperbolic fit:
# % remaining=100*(e^−k^1^T)
# where T is time (in minutes), from the relationship of relative amount vs. time. Alternatively, k1 was determined from a transform of the equation, where
# Conversion to in vivo clearance was obtained from the relation (Davies and Morris, 1993):
# where v=velocity of metabolism, [S] is the concentration of the compound, and volumes are expressed in mL.
# memapsin 2 [2] = molecular target: T1, memapsin 2 (Cricetulus griseus, UniProt G3IAK4); assay: Cellular Aβ IC50 determination (Aβ40 sandwich ELISA); type: cell-based; conditions: Chinese hamster ovary cells over-expressing human APP695 (London and Swedish mutations), Aβ40, 24 h; read-out: M2 IC50
# T1 construct: endogenous in cells; host or cells: Chinese hamster ovary cells over-expressing human APP695 (London + Swedish)
# T1 sequence (G3IAK4 22-501): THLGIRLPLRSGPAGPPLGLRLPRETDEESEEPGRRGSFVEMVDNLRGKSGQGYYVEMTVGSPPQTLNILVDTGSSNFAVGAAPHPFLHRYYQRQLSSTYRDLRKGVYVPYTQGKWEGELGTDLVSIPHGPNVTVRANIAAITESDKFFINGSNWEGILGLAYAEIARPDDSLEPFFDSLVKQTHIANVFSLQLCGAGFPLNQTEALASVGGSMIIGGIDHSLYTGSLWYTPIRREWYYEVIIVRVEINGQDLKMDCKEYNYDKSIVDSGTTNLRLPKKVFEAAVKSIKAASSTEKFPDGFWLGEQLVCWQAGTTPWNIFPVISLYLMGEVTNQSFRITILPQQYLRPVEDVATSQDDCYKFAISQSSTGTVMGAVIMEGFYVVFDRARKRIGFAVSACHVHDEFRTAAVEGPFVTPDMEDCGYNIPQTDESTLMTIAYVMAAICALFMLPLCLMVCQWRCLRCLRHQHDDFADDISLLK
# Description: The potency of compounds against memapsin 2 activity was determined in a cellular assay of Aβ production. […] Chinese hamster ovary cells that over-express human APP695 with the London and Swedish mutations were seeded in multi-well plates at 10% confluency. Compounds are dissolved in DMSO to concentrations near 1 mM, and diluted into culture media to a final concentration near 4 μM (final 0.4% DMSO). Compounds were diluted serially and applied to cells in multi-well plates 48 h after seeding. Incubation was continued in 5% CO2 at 37° C. for 24 h. Aliquots were removed and assayed for Aβ40 content using a sandwich ELISA (BioSource International). Amount of Aβ40 over the range of concentration of compounds, relative to control incubations, were fit to a 4-parameter IC50 model.
# Cathepsin D = Cathepsin D (UniProt P07339); assay: Inhibition of cathepsin D activity (MALDI-TOF, substrate peptide); type: biochemical; conditions: substrate peptide NH3-ELDLAVEFWHDR-CO2, pH 4.1, 37 degrees C.; read-out: CD Ki
# memapsin 2 [3] = molecular target: memapsin 2 (Homo sapiens, UniProt P56817); assay: Inhibition of memapsin 2 beta-secretase activity (fluorogenic substrate FS-2); type: biochemical; conditions: pH 4, 37° C., read-out: M2 Ki
# Sequence of memapsin 2 (Homo sapiens, UniProt P56817) (P56817 46-501): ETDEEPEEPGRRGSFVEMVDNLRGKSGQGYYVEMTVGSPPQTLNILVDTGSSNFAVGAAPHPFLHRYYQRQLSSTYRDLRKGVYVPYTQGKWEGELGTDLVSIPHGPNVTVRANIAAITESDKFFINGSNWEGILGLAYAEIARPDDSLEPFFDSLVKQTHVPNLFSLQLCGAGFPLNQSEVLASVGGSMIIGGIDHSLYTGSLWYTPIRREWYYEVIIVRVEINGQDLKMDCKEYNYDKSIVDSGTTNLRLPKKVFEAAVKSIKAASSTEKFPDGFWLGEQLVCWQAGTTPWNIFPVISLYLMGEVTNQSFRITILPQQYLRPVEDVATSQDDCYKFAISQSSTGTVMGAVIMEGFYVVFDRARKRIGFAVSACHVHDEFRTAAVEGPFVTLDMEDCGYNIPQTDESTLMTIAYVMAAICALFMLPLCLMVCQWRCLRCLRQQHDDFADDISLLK
# Description: Potency of compounds were determined by measurement of their inhibition of memapsin 2 activity toward a fluorescent substrate. Kinetic inhibition experiments were performed using the procedure as described in Ermolieff, et al. (Biochemistry 39:12450-12456 (2000), the teachings of which are incorporated hereby in their entirety). Briefly, assays were performed at pH 4, 37° C., by pre-incubation of memapsin 2 enzyme with compound for 20 minutes. Activity measurements were initiated by addition of a fluorogenic substrate FS-2 (Bachem Americas, Torrance, Calif.) MCA-SEVNLDAEFR-DNP (SEQ ID NO.: 2). The substrate was derived from 10 amino acids of the human amyloid precursor protein (APP), with the Swedish variant amino acids at the beta-secretase cleavage site. The terminal amino acid was modified from arginine to lysine to facilitate derivatization with a functional group for detection by autofluorescence. The amino acid sequence of the “core” peptide of the substrate is SEVNLDAEFK (SEQ ID NO.: 3). The amino terminus was derivatized with (7-methoxycoumarin-4-yl)acetyl (MCA), and the epsilon amine of the lysine side chain of the terminal residue (K in sequence SEVNLDAEFK (SEQ ID NO.: 3)) was derivatized with 2,4-dinitrophenyl (DNP).
# CYP3A4 = molecular target: T2, CYP3A4 (Homo sapiens, UniProt P08684); assay: Determination of CYP3A4 inhibition (midazolam metabolism); type: in vitro ADME; conditions: human liver microsomes, midazolam substrate
# T2 construct: with human liver microsomes (HLM) at a final protein concentration of 0.1 mg/mL protein; from tissue; host or cells: human liver microsomes
# T2 sequence (P08684 whole entry): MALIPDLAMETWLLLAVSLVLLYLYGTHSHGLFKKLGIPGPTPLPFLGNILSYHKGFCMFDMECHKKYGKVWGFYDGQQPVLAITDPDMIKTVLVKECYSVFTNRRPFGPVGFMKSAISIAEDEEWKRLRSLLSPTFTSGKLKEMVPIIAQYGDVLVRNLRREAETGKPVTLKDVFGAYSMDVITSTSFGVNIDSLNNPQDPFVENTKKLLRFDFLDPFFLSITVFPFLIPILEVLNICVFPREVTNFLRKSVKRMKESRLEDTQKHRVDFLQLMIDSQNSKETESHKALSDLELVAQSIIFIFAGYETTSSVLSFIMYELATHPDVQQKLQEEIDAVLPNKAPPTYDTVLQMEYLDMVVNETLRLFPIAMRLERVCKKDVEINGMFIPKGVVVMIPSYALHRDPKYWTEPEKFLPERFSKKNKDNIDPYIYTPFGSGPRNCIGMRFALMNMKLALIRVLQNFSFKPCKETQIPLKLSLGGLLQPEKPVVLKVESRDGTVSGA
# Description: To evaluate the drug-drug interaction potential for compounds, the potency to inhibit the major metabolic cytochrome CYP450 isoform 3A4 was assessed. The inhibition constant Ki was determined for inhibition of the metabolism of midazolam, a CYP3A4 substrate.
# CYP3A4 Ki assays were performed following a recently published protocol with slight modifications (Di, L., Kerns, E. H., Li, S. Q., and Carter, G. T. (2007) Comparison of cytochrome P450 inhibition assays for drug discovery using human liver microsomes with LC-MS, rhCYP450 isozymes with fluorescence, and double cocktail with LC-MS. International Journal of Pharmaceutics 335: 1-11). The P450 inhibition assay was performed in 96-well plates at 37.2° C. in a shaking incubator. […]
# After incubation for the specified time in a humidified shaking incubator, 20 μL of the reaction mixture was removed and the reactions were terminated by adding […] of cold acetonitrile. […] Formation of 1′-hydroxymidazolam was measured by monitoring a specific SRM (342>203) transition for the CYP3A4 metabolite.
# Data were expressed as the relative quantity of midazolam metabolite relative to control incubations. Initial velocities were obtained by multiplying the relative quantity by the initial substrate concentration and dividing by the incubation duration. […]
SMILES,CLint scaled at 200 μM [1],pIC50 (memapsin 2 [2]),pKi (Cathepsin D),pKi (memapsin 2 [3]),pKi (CYP3A4)
"Cc1csc([C@H]2CCCN2C(=O)c2cc(C(=O)N[C@@H](Cc3cc(F)cc(F)c3)[C@H](O)[C@H]3CCCN3)cc(N3CCCS3(=O)=O)c2)n1 [1-90, N-((1R,2S)-1-hydroxy-3-(3,5-difluorophenyl)-1-((R)-pyrrolidin-2-yl)propan-2-yl)-3-((R)-2-(4-methylthiazol-2-yl)pyrrolidine-1-carbonyl)-5-([1,2]thiazolidyl-S,S-dioxide)benzamide]",< 400 mL/min/kg,> 6.30,< 6.30,> 6.60,–
"Cc1csc([C@H]2CCCN2C(=O)c2cc(C(=O)N[C@@H](Cc3cc(F)cc(F)c3)[C@H](O)[C@H]3CCCN3)cc(N3CCCCS3(=O)=O)c2)n1 [1-87, N-((1R,2S)-1-hydroxy-3-(3,5-difluorophenyl)-1-((R)-pyrrolidin-2-yl)propan-2-yl)-3-((R)-2-(4-methylthiazol-2-yl)pyrrolidine-1-carbonyl)-5-(thiazinanyl-S,S-dioxide)benzamide]",< 400 mL/min/kg,> 6.30,< 6.30,> 6.60,< 5.00
"Cc1csc([C@H]2CCCN2C(=O)c2cc(C(=O)N[C@@H](Cc3cccc(F)c3)[C@H](O)[C@H]3CCCN3)cc(N3CCCS3(=O)=O)c2)n1 [1-91, N-((1R,2S)-1-hydroxy-3-(5-fluorophenyl)-1-((R)-pyrrolidin-2-yl)propan-2-yl)-3-((R)-2-(4-methylthiazol-2-yl)pyrrolidine-1-carbonyl)-5-([1,2]thiazolidyl-S,S-dioxide)benzamide]",< 400 mL/min/kg,6.00 to 6.30,< 6.30,> 6.60,–
"Cc1csc([C@H]2CCCN2C(=O)c2cc(C(=O)N[C@@H](Cc3ccccc3)[C@H](O)[C@H]3CCCN3)cc(N3CCCS3(=O)=O)c2)n1 [1-89, N-((1R,2S)-1-hydroxy-3-phenyl-1-((R)-pyrrolidin-2-yl)propan-2-yl)-3-((R)-2-(4-methylthiazol-2-yl)pyrrolidine-1-carbonyl)-5-([1,2]thiazolidyl-S,S-dioxide)benzamide]",< 400 mL/min/kg,> 6.30,< 6.30,> 6.60,–
"Cc1csc([C@H]2CCCN2C(=O)c2cc(C(=O)N[C@@H](Cc3ccccc3)[C@H](O)[C@H]3CCCN3)cc(N3CCCCS3(=O)=O)c2)n1 [1-78, N-((1R,2S)-1-hydroxy-3-phenyl-1-((R)-pyrrolidin-2-yl)propan-2-yl)-3-((R)-2-(4-methylthiazol-2-yl)pyrrolidine-1-carbonyl)-5-(thiazinanyl-S,S-dioxide)benzamide]",< 400 mL/min/kg,> 6.30,–,–,< 5.00
